Measured values published in patent US5008416A, “Organogermanium compound, process for the preparation of same as well as use thereof” (Sanwa Kagaku Kenkyusho Co., Ltd., priority 1989, dated 1991).
Like-named read-outs stand apart in the source and are kept apart here.

Tests used:
tumor bearing mice = test: Influence on delayed type hypersensitivity in tumor bearing mice (Pharmacological Experiment 3); assay type: in vivo, mouse (ICR male); settings: for Foot pad swelling: 24 hours, mean ± standard error, n = 10
Experimental: To investigate the effect of the organogermanium compound on the cellular immunity, we employed the delayed type hypersensitivity (DTH) of mice. Tumor bearing mice were used as experimental animals with reduced immunity and effect of the compound on the reduced DTH reaction was assayed.
Sarcoma 180 cells (10^6 cells) were intraperitoneally implanted to ICR male mice (age of 8 weeks) and after 3 hours from the implantation, 10^6 cells of SRBC were injected by intravenous route. Four days later, 2×10^8 cells of SRBC were intracutaneus injection to hind foot pad. After 24 hours from the injection, the swelling of the foot pad was observed by stereoscopic microscope.
To the mice in each test group, the organogermanium compound (Example 4) dissolved in 4% bovine serum albumin was orally administered at the time 4 days before the immunization at the dose of 0.1, 1.0 and 10.0 mg/kg.

NZB/WF1 mice = test: Influence on antibody production in NZB/WF1 mice (Pharmacological Experiment 2); assay type: in vivo, mouse (NZB/WF1 female); settings: for Number of PFC: 3 times, mean ± standard error, n = 5, (*) significant vs Control
Experimental: Influence of the organogermanium compound on antibody production is checked with use of NZB/WF1 mice who generate an autoimmune disease due to polyclonal activation of B cells, caused by functional reduction of suppresser T cell activities.
NZB/WF1 female mice (age of 11 weeks) were classified into Control group and Test groups (5 mice for each group), and 2×10^8 cells of SRBC were injected in a tail vein of each mouse for sensitization.
To the mice in each Test group, the organogermanium compound (Example 4) dissolved in 4% bovine serum albumin solution was orally administered in a dose of 1.0 or 10.0 mg/kg/day at 3 time, namely the day before, just after and the day after the sensitization.
After 4 days from the sensitization, spleen was removed from each mouse and number of PFC in 10^6 spleen cells was measured, as an index of the antibody production in the NZB/WF1 mice.

[1] = test system: Vaccinia virus (DI strain); assay type: in vivo, mouse (ddy male); settings: for Inhibition (pocks) / Number of pocks: 7th day; for Number of pocks: mean ± standard error, n = 10, (***) p < 0.001 vs Control
normal mice = test: Influence on delayed type hypersensitivity in normal mice (Pharmacological Experiment 4); assay type: in vivo, mouse (ICR male); settings: for Food pad swelling: 24 hours, mean ± standard error, n = 10
Experimental: Influence of the organogermanium compound on the DTH response of normal mice is investigated.
Normal ICR male mice (age of 8 weeks) were immunized with 10^6 cells of SRBC by intravenous route. On 4 days after immunization, the organogermanium compound (Example 4) dissolved in 4% bovine serum albumin was orally administered at the dose of 0.1, 1.0 and 10.0 mg/kg. Just after the treatment with the compound, mice were challenged to intracutaneus injection of 2×10^8 cells of SRBC to hind food pad.
After 24 hours from the injection, the swelling of the foot pad was observed by a stereoscopic microscope.

[2] = 0.1 mg/kg (as printed in Table 8) orally

## Sodium 2-oxygermylethanesulfonate polymer [Example 4]
Tumor bearing mice; 0.1 mg/kg orally
  Foot pad swelling: 66.8 ± 7.5 ×0.01 mm
Tumor bearing mice; 1.0 mg/kg orally, (***) p < 0.001 vs tumor bearing
  Foot pad swelling: 85.0 ± 5.9 ×0.01 mm
Tumor bearing mice; 10.0 mg/kg orally, (***) p < 0.001 vs tumor bearing
  Foot pad swelling: 74.3 ± 4.9 ×0.01 mm
Tumor bearing mice; 0.1, 1.0 and 10.0 mg/kg orally
  DTH response of tumor bearing mice (result in words): significantly restored the reduced DTH response to normal level
NZB/WF1 mice; 1.0 mg/kg/day orally
  Number of PFC: 3511 ± 302 PFC in 10^6 spleen cells
NZB/WF1 mice; 10.0 mg/kg/day orally
  Number of PFC: 3800 ± 360 PFC in 10^6 spleen cells
NZB/WF1 mice; treatment groups, 1.0 or 10.0 mg/kg/day orally
  Number of PFC (result in words): the number of PFC was significantly reduced
[1]; [2]
  Inhibition (pocks): 41.0%
  Number of pocks: 23 ± 2
[1]; 10.0 mg/kg orally
  Inhibition (pocks): 43.5%
  Number of pocks: 22 ± 4
[1]; orally
  Host defense against Vaccinia virus (result in words): has host defense function against Vaccinia virus infected mice
Normal mice; 0.1 mg/kg orally, (**) p < 0.01 vs Control
  Food pad swelling: 70.9 ± 9.1 x 0.01 mm
Normal mice; 1.0 mg/kg orally, (***) p < 0.001 vs Control
  Food pad swelling: 59.0 ± 6.6 x 0.01 mm
Normal mice; 10.0 mg/kg orally, (*) p < 0.05 vs Control
  Food pad swelling: 86.9 ± 10.2 x 0.01 mm
Normal mice; 0.1, 1.0 and 10.0 mg/kg orally
  DTH response of normal mice (result in words): significantly reduced the DTH response of normal mice
